In general, EC50 refers to the concentration that produces a half-maximal response. For orientation: CC50 means the concentration that lowers cell viability or growth by half. In general, AC50 refers to the concentration at which the activity in the assay is half-maximal. Usually IC50 stands for the concentration that inhibits the measured activity by half.

Structures can show the parent of a compound that is named as a salt. Activity calls are given as the source filed them.

Test [1] is described as follows: cells. The test is classed as functional, cell-based.
Test [2] is described as follows: cells. The class given is functional, cell-based. This is another data set of the same source.
In test [3] the test system is Vero. Description: cells. The test is classed as functional. The settings on record: Chlorocebus sabaeus.
Test [4] deals with T1, Protein RecA (Mycobacterium tuberculosis, UniProt P9WHJ3).
T1 sequence (P9WHJ3 whole entry): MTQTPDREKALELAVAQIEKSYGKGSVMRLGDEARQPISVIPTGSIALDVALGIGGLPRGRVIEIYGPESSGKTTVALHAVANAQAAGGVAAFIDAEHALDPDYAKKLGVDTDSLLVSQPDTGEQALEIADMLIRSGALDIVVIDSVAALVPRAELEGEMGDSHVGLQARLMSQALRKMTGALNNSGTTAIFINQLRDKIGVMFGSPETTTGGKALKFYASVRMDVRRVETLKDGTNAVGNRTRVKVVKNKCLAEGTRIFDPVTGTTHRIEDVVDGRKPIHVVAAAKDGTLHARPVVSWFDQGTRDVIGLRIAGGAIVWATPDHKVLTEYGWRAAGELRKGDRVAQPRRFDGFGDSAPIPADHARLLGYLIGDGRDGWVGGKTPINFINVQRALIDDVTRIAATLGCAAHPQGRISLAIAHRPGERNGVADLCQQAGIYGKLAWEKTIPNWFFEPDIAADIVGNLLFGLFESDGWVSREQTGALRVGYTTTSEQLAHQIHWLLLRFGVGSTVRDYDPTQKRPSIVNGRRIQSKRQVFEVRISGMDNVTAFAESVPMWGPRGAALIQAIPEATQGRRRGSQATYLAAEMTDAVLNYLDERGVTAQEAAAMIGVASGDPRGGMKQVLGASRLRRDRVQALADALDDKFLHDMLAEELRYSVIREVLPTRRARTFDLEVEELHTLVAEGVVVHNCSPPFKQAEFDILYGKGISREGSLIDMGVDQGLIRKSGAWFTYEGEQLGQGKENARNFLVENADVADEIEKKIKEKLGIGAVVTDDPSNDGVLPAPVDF
Description: Fluorescence Cell-Free Homogeneous Dose Retest to Identify Inhibitors of RecA-Intein Splicing Activity. [Related pubchem assays (depositor defined):AID2097, AID2223, AID489010, AID492950]. The class given is functional.

Test [5] has as its target T2, Replicative DNA helicase DnaB (Mycobacterium tuberculosis, UniProt P9WMR3).
T2 sequence (P9WMR3 whole entry): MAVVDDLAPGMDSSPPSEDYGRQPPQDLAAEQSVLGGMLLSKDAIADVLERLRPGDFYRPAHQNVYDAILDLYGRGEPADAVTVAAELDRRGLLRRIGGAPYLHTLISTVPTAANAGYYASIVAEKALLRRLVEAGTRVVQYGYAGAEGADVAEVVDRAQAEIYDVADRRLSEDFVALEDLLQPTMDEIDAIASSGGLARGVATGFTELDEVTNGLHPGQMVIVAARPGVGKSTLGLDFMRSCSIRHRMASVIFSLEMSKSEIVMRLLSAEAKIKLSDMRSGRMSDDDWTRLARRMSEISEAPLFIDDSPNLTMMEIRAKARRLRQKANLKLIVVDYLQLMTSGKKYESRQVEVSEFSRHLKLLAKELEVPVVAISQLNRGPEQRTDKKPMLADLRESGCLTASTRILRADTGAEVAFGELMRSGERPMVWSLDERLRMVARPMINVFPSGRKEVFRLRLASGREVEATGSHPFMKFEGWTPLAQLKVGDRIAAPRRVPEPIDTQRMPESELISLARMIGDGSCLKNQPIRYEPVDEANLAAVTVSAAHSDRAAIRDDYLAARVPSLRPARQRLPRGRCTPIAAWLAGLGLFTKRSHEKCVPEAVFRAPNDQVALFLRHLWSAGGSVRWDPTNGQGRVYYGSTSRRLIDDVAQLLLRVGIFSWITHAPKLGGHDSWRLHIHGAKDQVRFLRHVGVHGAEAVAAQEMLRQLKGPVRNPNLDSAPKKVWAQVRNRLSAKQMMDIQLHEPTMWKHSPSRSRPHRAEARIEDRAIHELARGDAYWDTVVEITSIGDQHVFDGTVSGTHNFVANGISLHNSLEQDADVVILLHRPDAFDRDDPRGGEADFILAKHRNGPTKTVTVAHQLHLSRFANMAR
Description: DnaB intein splicing inhibitors, dose response, biochemical, cell-free fluorescence (AID 449749). The class given is functional.

A short description of test [6]: Luminescence Cell-Based Dose Retest to Confirm Inhibitors of Cancer Stem Cells. [Related pubchem assays (depositor defined):AID2717, AID2721]. The test is classed as functional. The settings on record: Homo sapiens.
Test [7] addresses 5-hydroxytryptamine receptor 5A (Homo sapiens, UniProt P47898). Description: Counterscreen for agonists of OPRM1-OPRD1 heterodimerization: luminescence-based cell-based high throughput dose response assay to identify agonists of 5-hydroxytryptamine (serotonin) 5A receptor (HTR5A). [Related pubchem assays (depositor defined):AID504326, AID504355, AID504692, AID504904, AID504905]. The class given is functional. (Counterscreens check selectivity or assay interference.)

In test [8] the target is Delta-type opioid receptor (Homo sapiens, UniProt P41143). Put plainly: Counterscreen for agonists of heterodimerization of the mu 1 (OPRM1) and delta 1 (OPRD1) opioid receptors: Luminescence-based cell-based high throughput dose response assay to identify agonists of OPRD1 homodimerization. [Related pubchem assays (depositor defined):AID504326, AID504355, AID504692, AID504904, AID504905]. The class given is functional.

Test [9] concerns the target Mu-type opioid receptor (Homo sapiens, UniProt P35372). Put plainly: Counterscreen for agonists of heterodimerization of the mu 1 (OPRM1) and delta 1 (OPRD1) opioid receptors: Luminescence-based cell-based high throughput dose response assay to identify agonists of OPRM1 homodimerization. The class given is functional.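 Further: U2OS cells expressing OPRM1 and beta-arrestin as split beta-galactosidase partners.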
The target in test [10] is T3, Carboxy-terminal domain RNA polymerase II polypeptide A small phosphatase 1 (Homo sapiens, UniProt Q9GZU7).
T3 sequence (Q9GZU7 whole entry): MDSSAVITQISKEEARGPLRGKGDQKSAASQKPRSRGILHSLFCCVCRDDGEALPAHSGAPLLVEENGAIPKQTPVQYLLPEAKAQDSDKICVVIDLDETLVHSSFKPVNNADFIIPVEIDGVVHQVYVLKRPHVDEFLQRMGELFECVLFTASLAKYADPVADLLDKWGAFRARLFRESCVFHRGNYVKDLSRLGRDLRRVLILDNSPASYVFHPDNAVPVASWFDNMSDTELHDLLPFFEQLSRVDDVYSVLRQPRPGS
Description: CTDSP1 inhibitors, concentration-response, biochemical, absorbance readout, ultra-high-throughput screen actives (AID 540297). The test is classed as functional.

Test [11] is described as follows: off-target signal loss in HeLa-CEM21 co-culture – HeLa F-luc CTL cells, cherry-picked, counter-screen for HIV-1 Env fusion inhibitor project, dose response (AID 652040).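 Further: potency for signal decrease marking cytotoxic or nonspecific inhibition.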 The test is classed as functional, cell-based.
Test [12] in a line: blockers of HIV-1 envelope-mediated cell-cell fusion – cherry-pick, dose response (AID 652057). The class given is functional, cell-based.
A short description of test [13]: HIV-1 AD8 envelope cell-cell fusion blockers – cherry-pick, dose response (AID 652062).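 Further: luciferase signal from cell-cell fusion driven by HIV-1 clade B AD8 Env; potency is for inhibitors of fusion seen as a drop in luminescence.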 The test is classed as functional, cell-based.
Test [14] addresses T4, Short transient receptor potential channel 4 (Mus musculus, UniProt Q9QUQ5).
T4 sequence (Q9QUQ5 whole entry): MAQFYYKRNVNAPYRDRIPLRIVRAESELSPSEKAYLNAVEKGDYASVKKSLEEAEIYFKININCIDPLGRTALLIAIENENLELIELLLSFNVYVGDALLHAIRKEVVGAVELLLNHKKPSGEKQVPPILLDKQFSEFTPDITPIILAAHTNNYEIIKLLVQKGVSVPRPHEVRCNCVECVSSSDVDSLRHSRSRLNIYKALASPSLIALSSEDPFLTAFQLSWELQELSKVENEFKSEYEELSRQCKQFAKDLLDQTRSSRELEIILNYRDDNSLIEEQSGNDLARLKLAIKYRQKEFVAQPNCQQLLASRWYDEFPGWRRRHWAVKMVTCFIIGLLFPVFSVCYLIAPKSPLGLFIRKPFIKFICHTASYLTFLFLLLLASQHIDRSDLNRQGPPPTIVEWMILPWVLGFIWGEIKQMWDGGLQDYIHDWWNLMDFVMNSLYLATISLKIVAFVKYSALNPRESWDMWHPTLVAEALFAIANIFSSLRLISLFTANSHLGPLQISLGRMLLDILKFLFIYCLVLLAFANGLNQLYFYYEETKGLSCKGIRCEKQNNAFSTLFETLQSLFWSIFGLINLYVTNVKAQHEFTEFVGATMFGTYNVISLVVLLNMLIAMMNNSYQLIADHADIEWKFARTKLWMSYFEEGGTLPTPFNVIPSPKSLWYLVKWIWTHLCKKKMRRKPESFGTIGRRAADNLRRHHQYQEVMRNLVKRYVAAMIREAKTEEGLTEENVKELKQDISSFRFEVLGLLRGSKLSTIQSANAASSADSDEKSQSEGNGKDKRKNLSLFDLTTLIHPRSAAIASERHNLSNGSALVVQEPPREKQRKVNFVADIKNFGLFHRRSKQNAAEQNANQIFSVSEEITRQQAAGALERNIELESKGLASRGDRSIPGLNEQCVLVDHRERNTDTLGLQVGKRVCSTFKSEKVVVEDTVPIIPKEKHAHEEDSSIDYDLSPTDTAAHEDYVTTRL
Put plainly: calcium entry via TRPC4 opening agents – cell-based, HEK293 TRPC4/mu-opioid, Fluo-4 calcium, dose response (AID 434937). The test is classed as functional.

Test [15] has as its target T4, Short transient receptor potential channel 4. Description: block of DAMGO-driven TRPC4 calcium entry – cell-based, HEK293 TRPC4/mu-opioid, Fluo-4 calcium, dose response (AID 434942).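 Further: potency of inhibitors blocking the TRPC4 calcium response.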 The class given is functional.
Test [16] in a line: cells. The class given is functional.
Test [17] is described as follows: THP-1 cell cytotoxicity, dose response, cytotoxicity control for non-replicating M. tuberculosis project (AID 489025). The test is classed as functional.
The nature of test [18]: Trypanosoma cruzi growth suppression in host cells – NIH3T3 host cells, beta-gal luminescence, confirmation (AID 2044).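 Further: intracellular parasites grown in NIH/3T3 mouse fibroblasts as host cells; luminescent beta-galactosidase reporter signal from transgenic T. cruzi replicating inside host cells; inhibitors lower the luminescence signal.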 The test is classed as functional, cell-based.
Test [19] in a line: NIH3T3 cell viability loss – ATP luminescence, mouse fibroblasts, counter-screen, dose response (AID 2010).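 Further: cells exposed to compound for about 90 hours before reading.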 The test is classed as functional, cell-based.

Sequence of Delta-type opioid receptor (P41143 whole entry): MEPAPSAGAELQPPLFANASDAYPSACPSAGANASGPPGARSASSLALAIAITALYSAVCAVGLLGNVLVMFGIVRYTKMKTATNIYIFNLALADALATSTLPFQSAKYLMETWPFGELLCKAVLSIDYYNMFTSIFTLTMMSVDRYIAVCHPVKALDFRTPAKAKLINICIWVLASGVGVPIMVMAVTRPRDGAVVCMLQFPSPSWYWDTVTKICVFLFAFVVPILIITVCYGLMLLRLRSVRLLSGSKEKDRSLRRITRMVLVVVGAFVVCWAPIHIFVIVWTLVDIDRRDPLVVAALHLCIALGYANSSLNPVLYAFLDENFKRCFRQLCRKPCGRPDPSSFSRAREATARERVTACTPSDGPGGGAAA
Sequence of 5-hydroxytryptamine receptor 5A (P47898 whole entry): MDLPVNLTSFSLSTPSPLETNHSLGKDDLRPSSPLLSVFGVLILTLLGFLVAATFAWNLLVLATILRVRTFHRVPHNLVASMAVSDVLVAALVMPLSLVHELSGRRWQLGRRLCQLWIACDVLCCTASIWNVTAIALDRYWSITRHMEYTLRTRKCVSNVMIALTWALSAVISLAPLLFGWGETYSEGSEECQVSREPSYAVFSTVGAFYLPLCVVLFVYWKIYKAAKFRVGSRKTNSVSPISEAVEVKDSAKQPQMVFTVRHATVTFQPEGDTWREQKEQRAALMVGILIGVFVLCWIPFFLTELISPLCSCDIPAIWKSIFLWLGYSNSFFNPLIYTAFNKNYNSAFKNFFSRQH
Sequence of Mu-type opioid receptor (P35372 whole entry, the tested form may be a part): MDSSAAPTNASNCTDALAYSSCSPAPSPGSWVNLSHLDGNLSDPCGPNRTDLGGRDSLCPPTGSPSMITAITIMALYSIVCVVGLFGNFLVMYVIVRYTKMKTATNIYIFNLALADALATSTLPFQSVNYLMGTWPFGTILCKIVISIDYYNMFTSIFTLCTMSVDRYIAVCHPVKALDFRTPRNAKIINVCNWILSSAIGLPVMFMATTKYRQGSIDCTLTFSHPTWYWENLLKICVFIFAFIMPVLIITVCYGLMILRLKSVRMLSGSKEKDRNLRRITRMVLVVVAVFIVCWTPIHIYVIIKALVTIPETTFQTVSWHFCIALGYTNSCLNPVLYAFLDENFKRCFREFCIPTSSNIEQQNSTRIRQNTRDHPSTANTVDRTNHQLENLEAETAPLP

For `Cc1ccc(-c2nnc(Sc3nc4ccccc4o3)c3ccccc23)cc1`, the EC50 in test [1] was > 350 µM (not active); in test [2], > 350 µM (not active); in [4], 0.396 µM (active). Moreover, the CC50 in [3] is > 25 µM (active). Further, the results for the AC50 in test [5] and in test [6] were 2.39 µM (active) and 6.09 µM (active), respectively.
Turning to `c1ccc(C2(N3CCCCC3)CCCCC2)cc1` [PHENCYCLIDINE HYDROCHLORIDE], the EC50 was > 92.5 µM (inactive) in [7], 33.6 µM (inactive) in test [8] and 6.29 µM (active) in test [9].
Take `CC(=O)Nc1ccc(S(=O)(=O)NCCC(=O)OCC(=O)N2CCN(C(=O)c3ccco3)CC2)cc1`: in test [10], the IC50 was 10.3 µM (active).
`CSc1cccc(N2CC(C(=O)Nc3cccc(S(=O)(=O)N4CCCC4)c3)CC2=O)c1` (stereo unspecified): the results for the AC50 in [11], in test [12] and in [13] were > 70 µM (inactive), 17.8 µM (active) and 11.7 µM (active), respectively. Moreover, the 50% inhibitory concentration (IC50) in test [10] is 6.81 µM (active).
Turning to `COc1cccc(/C=C2/SC(=S)N(CCC(=O)N3CCOCC3)C2=O)c1`, the CC50 in test [3] was 20.1 µM (active).
`Cc1ccccc1[N+]1=C2SCCN2C(O)(c2ccccc2)C1` (stereo unspecified): the concentration for a half-maximal effect (EC50) in test [14] was 0.335 µM (active); in test [7] it was > 92.5 µM (inactive); in [8], > 92.5 µM (inactive); in test [9], 18.7 µM (inactive).
Consider `COc1ccc(C(=O)N/N=C/c2ccc(OC(=O)c3cccc4ccccc34)c([N+](=O)[O-])c2)cc1`, for which the IC50 in [10] was 2.4 µM (active).
As for `O=C(O)c1cc(-c2ccc(/C=C3\NC(=O)N(c4ccccc4)C3=O)o2)ccc1Cl`, in [10], the IC50 was 5.09 µM (active).
Take `O=c1c2ccc(Cl)cc2[nH]c(=S)n1Cc1cccnc1`: the EC50 is > 92.5 µM (inactive) in test [7], 43.2 µM (inactive) in test [8] and 65.6 µM (inactive) in test [9].
Regarding `CN(C)C(CNC(=O)c1ccc(C(F)(F)F)cc1)c1ccco1` (stereo unspecified), the half-maximal effective concentration (EC50) in test [14] was 0.267 µM (active); in test [7], > 92.4 µM (inactive); in test [8], 91 µM (inactive); in [15], 0.0533 µM (active); in test [9] it was > 92.4 µM (inactive).
For the compound `C/C(=N/Nc1ccnc2cc(Cl)ccc12)c1ccc(N)cc1`, in test [16], the IC50 was 29 µM (active). In addition, the 50% cytotoxic concentration (CC50) in test [17] is 23.4 µM (active). The EC50 is > 92.4 µM (inactive) in [7]; 3.31 µM (active) in test [18]; 29.5 µM (inactive) in test [8]; > 60 µM (not active) in [19]; 54.7 µM (inactive) in [9].

(Values after ChEMBL document CHEMBL1201862, “PubChem BioAssay data set” (2004).)
